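GI50: concentration for 50% inhibition of growth. TGI: total growth inhibition.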
Assays:
Assay in all cases: growth of human tumour cells (NCI), 384-well format
[1] = tested on: 786-0 renal
[2] = tested on: A498 renal
[3] = tested on: A549 NSCLC
[4] = tested on: ACHN renal
[5] = tested on: BT-549 breast
[6] = tested on: CAKI-1 renal
[7] = tested on: CCRF-CEM leukemia
[8] = tested on: COLO 205 colon
[9] = tested on: DU-145 prostate
[10] = tested on: EKVX NSCLC
[11] = tested on: HCC-2998 colon
[12] = tested on: HCT-116 colon
[13] = tested on: HCT-15 colon
[14] = tested on: HL-60(TB) leukemia
[15] = tested on: HOP-62 NSCLC
[16] = tested on: HOP-92 NSCLC
[17] = tested on: HS 578T breast
[18] = tested on: HT29 colon
[19] = tested on: IGROV1 ovarian
[20] = tested on: K-562 leukemia
[21] = tested on: KM12 colon
[22] = tested on: LOX IMVI melanoma
[23] = tested on: M14 melanoma
[24] = tested on: MALME-3M melanoma
[25] = tested on: MCF7 breast
[26] = tested on: MDA-MB-231 breast
[27] = tested on: MDA-MB-435 melanoma
[28] = tested on: MDA-MB-468 breast
[29] = tested on: MOLT-4 leukemia
[30] = tested on: NCI-H226 lung
[31] = tested on: NCI-H23 lung
[32] = tested on: NCI-H322M lung
[33] = tested on: NCI-H460 NSCLC
[34] = tested on: NCI-H522 lung
[35] = tested on: NCI/ADR-RES ovarian
[36] = tested on: OVCAR-3 ovarian
[37] = tested on: OVCAR-4 ovarian
[38] = tested on: OVCAR-5 ovarian
[39] = tested on: OVCAR-8 ovarian
[40] = tested on: PC-3 prostate
[41] = tested on: RPMI-8226 leukemia
[42] = tested on: RXF 393 renal
[43] = tested on: SF-268 CNS
[44] = tested on: SF-295 CNS
[45] = tested on: SF-539 CNS
[46] = tested on: SK-MEL-28 melanoma
[47] = tested on: SK-MEL-5 melanoma
[48] = tested on: SK-OV-3 ovarian
[49] = tested on: SN12C renal
[50] = tested on: SNB-19 CNS
[51] = tested on: SNB-75 CNS
[52] = tested on: SR leukemia
[53] = tested on: SW-620 colon
[54] = tested on: T-47D breast
[55] = tested on: TK-10 renal
[56] = tested on: U251 glioblastoma
[57] = tested on: UACC-257 melanoma
[58] = tested on: UO-31 renal

CC(C)(C)c1[nH]cnc1/C=c1\[nH]c(=O)/c(=C/c2ccccc2)[nH]c1=O
GI50 [1]: < 0.01 µM | TGI [1]: 0.027 µM | GI50 [2]: < 0.01 µM | TGI [2]: 0.265 µM | GI50 [3]: < 0.01 µM | TGI [3]: 16.7 µM | GI50 [4]: < 0.01 µM | TGI [4]: 13.3 µM | GI50 [5]: < 0.01 µM | TGI [5]: 0.0255 µM | GI50 [6]: < 0.01 µM | TGI [6]: 13 µM | GI50 [7]: < 0.01 µM | TGI [7]: < 0.01 µM | GI50 [8]: < 0.01 µM | TGI [8]: < 0.01 µM | GI50 [9]: < 0.01 µM | TGI [9]: 0.0219 µM | GI50 [10]: < 0.01 µM | TGI [10]: 13 µM | GI50 [11]: < 0.01 µM | TGI [11]: 0.0221 µM | GI50 [12]: < 0.01 µM | TGI [12]: 0.0393 µM | GI50 [13]: < 0.01 µM | TGI [13]: 0.0225 µM | GI50 [14]: < 0.01 µM | TGI [14]: < 0.01 µM | GI50 [15]: < 0.01 µM | TGI [15]: 0.304 µM | GI50 [16]: < 0.01 µM | TGI [16]: 2.81 µM | GI50 [17]: < 0.01 µM | TGI [17]: < 0.01 µM | GI50 [18]: < 0.01 µM | TGI [18]: 12.9 µM | GI50 [19]: < 0.01 µM | TGI [19]: 10.2 µM | GI50 [20]: < 0.01 µM | TGI [20]: < 0.01 µM | GI50 [21]: < 0.01 µM | TGI [21]: 1.25 µM | GI50 [22]: < 0.01 µM | TGI [22]: 0.0305 µM | GI50 [23]: < 0.01 µM | TGI [23]: < 0.01 µM | GI50 [24]: < 0.01 µM | TGI [24]: 16.5 µM | GI50 [25]: < 0.01 µM | TGI [25]: 10.3 µM | GI50 [26]: 0.0107 µM | TGI [26]: 19.7 µM | GI50 [27]: < 0.01 µM | TGI [27]: < 0.01 µM | GI50 [28]: 0.0103 µM | TGI [28]: 0.0246 µM | GI50 [29]: < 0.01 µM | TGI [29]: < 0.01 µM | GI50 [30]: < 0.01 µM | TGI [30]: 0.0262 µM | GI50 [31]: < 0.01 µM | TGI [31]: < 0.01 µM | GI50 [32]: < 0.01 µM | TGI [32]: 15.2 µM | GI50 [33]: < 0.01 µM | TGI [33]: < 0.01 µM | GI50 [34]: < 0.01 µM | TGI [34]: < 0.01 µM | GI50 [35]: < 0.01 µM | TGI [35]: < 0.01 µM | GI50 [36]: < 0.01 µM | TGI [36]: < 0.01 µM | GI50 [37]: < 0.01 µM | TGI [37]: 3.72 µM | GI50 [38]: 10.9 µM | TGI [38]: 32.9 µM | GI50 [39]: < 0.01 µM | TGI [39]: 0.0159 µM | GI50 [40]: < 0.01 µM | TGI [40]: 14.9 µM | GI50 [41]: < 0.01 µM | TGI [41]: < 0.01 µM | GI50 [42]: < 0.01 µM | TGI [42]: < 0.01 µM | GI50 [43]: < 0.01 µM | TGI [43]: 0.0491 µM | GI50 [44]: < 0.01 µM | TGI [44]: < 0.01 µM | GI50 [45]: < 0.01 µM | TGI [45]: < 0.01 µM | GI50 [46]: 1.75 µM | TGI [46]: 20.4 µM | GI50 [47]: < 0.01 µM | TGI [47]: < 0.01 µM | GI50 [48]: < 0.01 µM | TGI [48]: 0.746 µM | GI50 [49]: < 0.01 µM | TGI [49]: 4.23 µM | GI50 [50]: < 0.01 µM | TGI [50]: 11 µM | GI50 [51]: < 0.01 µM | TGI [51]: 0.0783 µM | GI50 [52]: < 0.01 µM | TGI [52]: < 0.01 µM | GI50 [53]: < 0.01 µM | TGI [53]: 17.5 µM | GI50 [54]: < 0.01 µM | TGI [54]: 7.15 µM | GI50 [55]: < 0.01 µM | TGI [55]: 16.4 µM | GI50 [56]: < 0.01 µM | TGI [56]: 0.0168 µM | GI50 [57]: < 0.01 µM | TGI [57]: 18.8 µM | GI50 [58]: < 0.01 µM | TGI [58]: 14.5 µM

Source: PubChem BioAssay (NCI)
